Measurements taken from publication PMC8816521, “Flux-Based Formulation Development—A Proof of Concept Study” (The AAPS Journal, 2022).
Converted amounts (≈) assume the structure as drawn. Like-named read-outs stand apart in the source and are kept apart here. Each block holds one compound with its values, some of them ahead of it.

Assays:
[1] = Kinetic solubility in FaSSIF with pre-dissolved additives (in situ UV probes, ZIM); assay type: physicochemical; details: 37 °C
Procedure: Note that in the context of this manuscript, solubility measured by this method will be called kinetic solubility because the form of the solid phase precipitating during these assays was not characterized. […] Ten milliliters of dissolution medium consisting of equilibrated fasted state simulated intestinal fluid (FaSSIF) buffer containing pre-dissolved additives was stirred at 200 rpm and held at 37°C by circulating water through a heating block mounted to a Pion μDISS™ profiler (Pion Inc., Billerica MA, USA). The stock solution was added in 20 μL aliquots to the dissolution medium. 1 M HCl was used to readjust the pH of the media after every addition of the stock solution. During and after addition of the stock solution, UV probes connected to a Pion Rainbow™ Dynamic Dissolution Monitor® system were used to detect changes in UV spectra, thus enabling the detection of precipitation, which provides information about the kinetic solubility limit.
The zero intercept method (ZIM) was implemented in the AuPRO™ software (Pion Inc., Billerica MA, USA), which was considered a suitable method for detecting the solid nanoparticles in solution. It can be noticed that the second derivative spectrum of a particular compound usually crosses the wavelength axis at specific wavelengths that we will call zero intercept method points or ZIM points (λZIM). The ZIM points are characteristic of the compound and are independent of the concentration. The second derivative values at λZIM are expected to be zero […] the compound is fully dissolved. After a critical concentration, solid particles appear in the solution, and a ZIM point shift can be observed. In case of TEL, the ZIM evaluation was carried out at a wavelength of 318 nm.

[2] = parameters: method as in PMID 18501462, PMID 31458196; details: between pH 3 and 8; cited from earlier work
[3] = Solubility of TEL; assay type: physicochemical
[4] = PAMPA for evaluating the effect of formulation additives on TEL permeability; assay type: in vitro ADME; details: for Pe: acceptor pH 7.4, 37°C
Procedure: Each well of the top (donor) compartment of 96-well […]™ PAMPA sandwich (Pion Inc., Billerica MA, USA) was coated with 4 μL of n-dodecane. Before forming the sandwich, the bottom (acceptor) plate was prefilled with 180 μL of pH = 7.4 Prisma^HT buffer. The donor plate was filled with 200 μL of FaSSIF buffer with pre-dissolved TEL and formulation additives. The resultant sandwich was incubated at 37°C, and both compartments were stirred at 60 μm (ABL) with Gut-Box™ (Pion Inc., Billerica MA, USA). After 30 min, the PAMPA sandwich was separated, and 100 μL of both the donor and acceptor compartments were transferred to UV plates (UV-star micro plate, clear, flat bottom, half area, Greiner Group AG, Kremsmünster, Austria). UV absorption (230–400 nm) was measured with Tecan Infinite M200 (Tecan Group Ltd., Mannedorf, Switzerland) driven by PAMPA Explorer software™ (Pion Inc., Billerica MA, USA). Three parallel measurements were performed, and the data were measured with six replicates on every single plate.
(§1) The flux across the membrane was calculated using the following equation: 1 Jt=Δn/A*Δt
(§2) where the flux (J) of a drug through the membrane is defined as the amount (n) of drug crossing a unit area (A) perpendicular to its flow per unit time (t). 2 Pe=J/CD where the Pe is the effective permeability of the drug and CD is donor concentration.
At first, an excipient screening on the PAMPA platform was carried out. The excipients of the available TEL formulations and commonly used standard excipients were involved in the investigation of API-excipient interaction. The concentration of the excipients was determined by referring the usual amount of additives in one tablet to 900 mL dissolution media. Due to the experimental differences in the applied doses, the flux data were considered misleading, and the permeability value was used since it is normalized by the donor concentration.

[5] = Large volume dissolution-permeation (MacroFLUX); assay type: in vitro ADME; details: large scale; donor SGF pH 1.6 converted to FaSSIF pH 6.5 after 30 min, acceptor pH 7.4, 37°C, calculated between 70 and 100 min
Procedure: Final dosage forms of TEL were tested using MacroFLUX^TM (Pion Inc., Billerica MA, USA). […] The flux and permeability values were calculated using Eqs. (1) and (2) between 70 and 100 min.
The MacroFLUX system equipped with in situ fiber optic concentration monitoring was used in this final investigation. The same media conversion protocol as in the case of small volume dissolution-permeation measurements was applied in the dissolution vessel [28]. Micardis, the brand formulation, and the pure amorphous drug were used as references.
Receiver chamber integrated with permeation membrane, overhead stirrer and fiber optic UV probe was inserted in the standard 900 mL vessel of USP 2 apparatus (Erweka DT 126 Dissolution Tester, Heusenstamm Germany). A filter-supported artificial membrane (hydrophobic PVDF, polyvinylidenfluoride, 0.45 μm pore size, 3.8 cm^2) impregnated with 50 μL of n-dodecane was separating the dissolution (donor) compartment from the receiver compartment containing 13 mL of pH 7.4 (Prisma^HT, Pion Inc.). The experiment began in 850 mL of pH 1.6 buffer simulating gastric conditions (SGF) on the donor side and then after 30 minutes media in the dissolution vessel was converted to fasted state simulated intestinal fluid (FaSSIF V1) (pH 6.5) by adding 212.5 mL of specially formulated concentrate containing SIF powder. […]

[6] = Small volume dissolution-permeation (MicroFLUX); assay type: in vitro ADME; details: small scale; donor pH 1.6 converted to FaSSIF pH 6.5 after 30 min, acceptor pH 7.4, 37°C, calculated between 70 and 100 min
Procedure: as §1, §2
Electrospun formulations of TEL were tested using μFLUX (Pion Inc., Billerica MA, USA) apparatus which consists of a donor and an acceptor chamber separated by an artificial membrane (PVDF, polyvinylidenfluoride, 0.45 μm, 1.54 cm^2) impregnated with 25 μL n-dodecane to form a lipophilic barrier between the donor and acceptor chambers. In case of oral drug delivery, the donor chamber represents the stomach’s condition, while the 18 mL pH 7.4 buffer of acceptor chamber represents the blood circulation. The attempt was started in 16 mL pH 1.6 buffer solution; then after 30 min, media in the dissolution vessel was converted to FaSSIF (pH 6.5) by adding 4 mL of SIF concentrate. Both chambers were stirred at 250 rpm at 37°C to keep the thickness of the unstirred aqueous layer on minimum. In both chambers, the API concentration was followed by immersed UV probes connected to the Rainbow instrument (Pion Inc., Billerica MA, USA). The flux and permeability values were calculated using Eqs. (1) and (2) between 70 and 100 min. […]

solubility kinetic ([1]; FaSSIF buffer with pre-dissolved additive, pH 6.5, aqueous with cosolvent or surfactant or cyclodextrin, TEL in FaSSIF with HPβCD 1386 μg/mL): 37.5 µg/mL (≈ 72.9 µM)
solubility kinetic ([1]; FaSSIF buffer with pre-dissolved additive, pH 6.5, aqueous with cosolvent or surfactant or cyclodextrin, TEL in FaSSIF with SDS 850 μg/mL): 45.9 µg/mL (≈ 89.1 µM)
solubility kinetic ([1]; FaSSIF buffer with pre-dissolved additive, pH 6.5, aqueous with cosolvent or surfactant or cyclodextrin, TEL in FaSSIF with Tween 80 0.45 μg/mL): 64.3 µg/mL (≈ 125 µM)
solubility kinetic ([1]; FaSSIF buffer with pre-dissolved additive, pH 6.5, fassif, TEL in FaSSIF with HMPC 2910 212 μg/mL): 30.9 µg/mL (≈ 60 µM)
solubility kinetic ([1]; FaSSIF buffer with pre-dissolved additive, pH 6.5, fassif, TEL in FaSSIF with HPMC-AS 212 μg/mL): 34.1 µg/mL (≈ 66.3 µM)
solubility kinetic ([1]; FaSSIF buffer with pre-dissolved additive, pH 6.5, fassif, TEL in FaSSIF with Lactose monohydrate 667 μg/mL): 32.8 µg/mL (≈ 63.7 µM)
solubility kinetic ([1]; FaSSIF buffer with pre-dissolved additive, pH 6.5, fassif, TEL in FaSSIF with Mannitol 667 μg/mL): 39.7 µg/mL (≈ 77.1 µM)
solubility kinetic ([1]; FaSSIF buffer with pre-dissolved additive, pH 6.5, fassif, TEL in FaSSIF with PVP K30 212 μg/mL): 34.7 µg/mL (≈ 67.4 µM)
solubility kinetic ([1]; FaSSIF buffer with pre-dissolved additive, pH 6.5, fassif, TEL in FaSSIF with PVP K90 212 μg/mL): 34.4 µg/mL (≈ 66.8 µM)
solubility kinetic ([1]; FaSSIF buffer with pre-dissolved additive, pH 6.5, fassif, TEL in FaSSIF with Sorbitol 667 μg/mL): 30.7 µg/mL (≈ 59.7 µM)
solubility kinetic ([1]; FaSSIF buffer, pH 6.5, fassif, TEL in FaSSIF, no additive (0 μg/mL)): 37.3 µg/mL (≈ 72.4 µM)
Solubility in 1 M NaOH solution ([3]; 1 M NaOH solution, aqueous): dissolves extremely well
solubility ([3]; pH 6.5, crystalline TEL in FaSSIF media): < 1 µg/mL
Papp at 30 min ([4]; PAMPA, excipient-free TEL on the plate of the additive in that table row, FaSSIF donor, 37°C, read-out: Reference Pe): 111 ×10⁻⁶ cm/s
Pe ([4]; TEL with HMPC 2910 212 μg/mL in FaSSIF donor, 30 min): 1.22 10^−4 cm/sec
Pe ([4]; TEL with HPMC-AS 212 μg/mL in FaSSIF donor, 30 min): 1.28 10^−4 cm/sec
Pe ([4]; TEL with HPβCD 1386 μg/mL in FaSSIF donor, 30 min): 1.21 10^−4 cm/sec
Pe ([4]; TEL with Lactose monohydrate 667 μg/mL in FaSSIF donor, 30 min): 1.39 10^−4 cm/sec
Pe ([4]; TEL with Mannitol 667 μg/mL in FaSSIF donor, 30 min): 1.23 10^−4 cm/sec
Pe ([4]; TEL with PVP K30 212 μg/mL in FaSSIF donor, 30 min): 1.31 10^−4 cm/sec
Pe ([4]; TEL with PVP K90 212 μg/mL in FaSSIF donor, 30 min): 1.25 10^−4 cm/sec
Pe ([4]; TEL with SDS 850 μg/mL in FaSSIF donor, 30 min): 0.83 10^−4 cm/sec
Pe ([4]; TEL with Sorbitol 667 μg/mL in FaSSIF donor, 30 min): 1.42 10^−4 cm/sec
Pe ([4]; TEL with Tween 80 0.45 μg/mL in FaSSIF donor, 30 min): 0.86 10^−4 cm/sec
Reference Pe ([4]; excipient-free TEL on the plate of the additive in that table row, FaSSIF donor, 37°C, 30 min): 1.16 10^−4 cm/sec
Compound: CCCc1nc2c(C)cc(-c3nc4ccccc4n3C)cc2n1Cc1ccc(-c2ccccc2C(=O)O)cc1 [TEL, telmisartan]
solubility [2]: practically insoluble

Pe [5]: 1.03 10^−4 cm/sec
Pe [6]: 1.19 10^−4 cm/sec
Compound: CCCc1nc2c(C)cc(-c3nc4ccccc4n3C)cc2n1Cc1ccc(-c2ccccc2C(=O)O)cc1 [Tel_amorphous, telmisartan]
